Test results: paper PMC10108266, “Pharmacokinetic characteristics of golidocitinib, a highly selective JAK1 inhibitor, in healthy adult participants” (Frontiers in Immunology, 2023)
Like-named read-outs stand apart in the source and are kept apart here.

Tests used:
[1] = Safety (TEAEs), JACKPOT2 SAD cohorts; assay type: in vivo, human; conditions: n = 4
Description: Safety assessments included monitoring of adverse events/serious adverse events, clinical safety laboratory tests (clinical chemistry, hematology, coagulation, and urinalysis tests), 12-lead ECG, vital signs (blood pressure, pulse rate, and respiratory rate), and pulmonary function. All adverse events were coded using the Medical Dictionary for Regulatory Activities (MedDRA), version 22.0. The CTCAE 5.0 was used to define the intensity of AEs.

[2] = JACKPOT3 single-ascending-dose plasma PK, healthy Chinese participants; assay type: in vivo, human; conditions: for AUC(0-inf) / Cmax / Vd/F / half-life / Tmax: human, plasma; for AUC(0-inf) / Cmax: geometric mean (CV%)
Description: This was a SAD study in healthy adult Asian participants, with a study design similar to the SAD cohorts of JACKPOT2 study. […] A total of 32 healthy participants were randomized to receive a single dose of golidocitinib or matched placebo (6:2).
After single oral administration, serial blood samples were obtained on Day 1 at pre-dose, and at 0.5, 1, 1.5, 2, 3, 4, 6, 8, 12, 24 (Day 2), 48 (Day 3), 72 (Day 4), 120 (Day 6), 168 (Day 8) and 216 (Day 10) hours post-dose for plasma PK analysis. Urine samples were collected during the collection intervals of 0-4, 4-10, 10-24, 24-48, 48-72, 72-96, 96-120, 120-144, and 144-168 hours following a single oral dose of 100 mg for urine PK analysis. Validated LC/MS methods were used for the determination of golidocitinib in human plasma and urine by Frontage Laboratories Inc. (Shanghai). This method was cross validated by Frontage Laboratories Inc. (New Jersey, USA) and met the acceptance criteria.

SMILES: COc1nn(C)cc1Nc1nccc(-c2c[nH]c3c(NC(=O)[C@@H](C)N4CCN(C)CC4)cccc23)n1 [golidocitinib, (2R)-N-[3-[2-[(3-Methoxy-1-methyl-pyrazol-4-yl)amino]pyrimidin-4-yl]-1H-indol-7-yl]-2-(4-methylpiperazin-1-yl)propenamide]
- ALT Increased ([1]; 5 mg single dose): 0 n (%)
- AST Increased ([1]; 5 mg single dose): 0 n (%)
- Anemia ([1]; 5 mg single dose): 1 (25.0%) n (%)
- Blood and Lymphatic System Disorders ([1]; 5 mg single dose): 2 (50.0%) n (%)
- Chest Discomfort ([1]; 5 mg single dose): 0 n (%)
- Dyspnea ([1]; 5 mg single dose): 0 n (%)
- Eosinophilia ([1]; 5 mg single dose): 2 (50.0%) n (%)
- General Disorders and Administration Site Conditions ([1]; 5 mg single dose): 0 n (%)
- Investigations ([1]; 5 mg single dose): 0 n (%)
- N-Terminal Pro-BNP ([1]; 5 mg single dose): 0 n (%)
- Nasal Congestion ([1]; 5 mg single dose): 1 (25.0%) n (%)
- Neutropenia ([1]; 5 mg single dose): 0 n (%)
- Oropharyngeal Pain ([1]; 5 mg single dose): 1 (25.0%) n (%)
- Respiratory, Thoracic and Mediastinal Disorders ([1]; 5 mg single dose): 2 (50.0%) n (%)
- Subjects with at least one TEAE ([1]; 5 mg single dose): 2 (50.0%) n (%)
- Thrombocytosis ([1]; 5 mg single dose): 0 n (%)
- ALT Increased ([1]; 20 mg single dose): 0 n (%)
- AST Increased ([1]; 20 mg single dose): 0 n (%)
- Anemia ([1]; 20 mg single dose): 0 n (%)
- Blood and Lymphatic System Disorders ([1]; 20 mg single dose): 2 (50.0%) n (%)
- Chest Discomfort ([1]; 20 mg single dose): 0 n (%)
- Dyspnea ([1]; 20 mg single dose): 0 n (%)
- Eosinophilia ([1]; 20 mg single dose): 0 n (%)
- General Disorders and Administration Site Conditions ([1]; 20 mg single dose): 0 n (%)
- Investigations ([1]; 20 mg single dose): 0 n (%)
- N-Terminal Pro-BNP ([1]; 20 mg single dose): 0 n (%)
- Nasal Congestion ([1]; 20 mg single dose): 0 n (%)
- Neutropenia ([1]; 20 mg single dose): 1 (25.0%) n (%)
- Oropharyngeal Pain ([1]; 20 mg single dose): 0 n (%)
- Respiratory, Thoracic and Mediastinal Disorders ([1]; 20 mg single dose): 0 n (%)
- Subjects with at least one TEAE ([1]; 20 mg single dose): 2 (50.0%) n (%)
- Thrombocytosis ([1]; 20 mg single dose): 1 (25.0%) n (%)
- ALT Increased ([1]; 50 mg single dose): 0 n (%)
- AST Increased ([1]; 50 mg single dose): 0 n (%)
- Anemia ([1]; 50 mg single dose): 0 n (%)
- Blood and Lymphatic System Disorders ([1]; 50 mg single dose): 0 n (%)
- Chest Discomfort ([1]; 50 mg single dose): 0 n (%)
- Dyspnea ([1]; 50 mg single dose): 0 n (%)
- Eosinophilia ([1]; 50 mg single dose): 0 n (%)
- General Disorders and Administration Site Conditions ([1]; 50 mg single dose): 0 n (%)
- Investigations ([1]; 50 mg single dose): 1 (25.0%) n (%)
- N-Terminal Pro-BNP ([1]; 50 mg single dose): 1 (25.0%) n (%)
- Nasal Congestion ([1]; 50 mg single dose): 0 n (%)
- Neutropenia ([1]; 50 mg single dose): 0 n (%)
- Oropharyngeal Pain ([1]; 50 mg single dose): 0 n (%)
- Respiratory, Thoracic and Mediastinal Disorders ([1]; 50 mg single dose): 0 n (%)
- Subjects with at least one TEAE ([1]; 50 mg single dose): 1 (25.0%) n (%)
- Thrombocytosis ([1]; 50 mg single dose): 0 n (%)
- ALT Increased ([1]; 100 mg single dose): 0 n (%)
- AST Increased ([1]; 100 mg single dose): 0 n (%)
- Anemia ([1]; 100 mg single dose): 0 n (%)
- Blood and Lymphatic System Disorders ([1]; 100 mg single dose): 1 (25.0%) n (%)
- Chest Discomfort ([1]; 100 mg single dose): 1 (25.0%) n (%)
- Dyspnea ([1]; 100 mg single dose): 0 n (%)
- Eosinophilia ([1]; 100 mg single dose): 0 n (%)
- General Disorders and Administration Site Conditions ([1]; 100 mg single dose): 1 (25.0%) n (%)
- Investigations ([1]; 100 mg single dose): 0 n (%)
- N-Terminal Pro-BNP ([1]; 100 mg single dose): 0 n (%)
- Nasal Congestion ([1]; 100 mg single dose): 0 n (%)
- Neutropenia ([1]; 100 mg single dose): 0 n (%)
- Oropharyngeal Pain ([1]; 100 mg single dose): 0 n (%)
- Respiratory, Thoracic and Mediastinal Disorders ([1]; 100 mg single dose): 0 n (%)
- Subjects with at least one TEAE ([1]; 100 mg single dose): 1 (25.0%) n (%)
- Thrombocytosis ([1]; 100 mg single dose): 1 (25.0%) n (%)
- ALT Increased ([1]; 150 mg single dose): 0 n (%)
- AST Increased ([1]; 150 mg single dose): 0 n (%)
- Anemia ([1]; 150 mg single dose): 0 n (%)
- Blood and Lymphatic System Disorders ([1]; 150 mg single dose): 0 n (%)
- Chest Discomfort ([1]; 150 mg single dose): 0 n (%)
- Dyspnea ([1]; 150 mg single dose): 0 n (%)
- Eosinophilia ([1]; 150 mg single dose): 0 n (%)
- General Disorders and Administration Site Conditions ([1]; 150 mg single dose): 0 n (%)
- Investigations ([1]; 150 mg single dose): 0 n (%)
- N-Terminal Pro-BNP ([1]; 150 mg single dose): 0 n (%)
- Nasal Congestion ([1]; 150 mg single dose): 0 n (%)
- Neutropenia ([1]; 150 mg single dose): 0 n (%)
- Oropharyngeal Pain ([1]; 150 mg single dose): 0 n (%)
- Respiratory, Thoracic and Mediastinal Disorders ([1]; 150 mg single dose): 0 n (%)
- Subjects with at least one TEAE ([1]; 150 mg single dose): 0 n (%)
- Thrombocytosis ([1]; 150 mg single dose): 0 n (%)
- AUC(0-inf) ([2]; oral, single dose 25 mg): 1230 ng·h/mL
- Cmax ([2]; oral, single dose 25 mg): 40.8 ng/mL
- Vd/F ([2]; oral, single dose 25 mg, mean (SD), read-out: Vz/F): 1040 L
- half-life ([2]; oral, single dose 25 mg, median (min, max), read-out: t1/2 (converted)): 38 h
- Tmax ([2]; oral, single dose 25 mg, median (min, max), read-out: tmax): 3 h
- AUC(0-inf) ([2]; oral, single dose 50 mg): 2370 ng·h/mL
- Cmax ([2]; oral, single dose 50 mg): 75 ng/mL
- Vd/F ([2]; oral, single dose 50 mg, mean (SD), read-out: Vz/F): 1160 L
- half-life ([2]; oral, single dose 50 mg, median (min, max), read-out: t1/2 (converted)): 39.1 h
- Tmax ([2]; oral, single dose 50 mg, median (min, max), read-out: tmax): 2 h
- AUC(0-inf) ([2]; oral, single dose 100 mg): 4740 ng·h/mL
- Cmax ([2]; oral, single dose 100 mg): 184 ng/mL
- Vd/F ([2]; oral, single dose 100 mg, mean (SD), read-out: Vz/F): 826 L
- half-life ([2]; oral, single dose 100 mg, median (min, max), read-out: t1/2 (converted)): 28.3 h
- Tmax ([2]; oral, single dose 100 mg, median (min, max), read-out: tmax): 2 h
- AUC(0-inf) ([2]; oral, single dose 150 mg): 8340 ng·h/mL
- Cmax ([2]; oral, single dose 150 mg): 280 ng/mL
- Vd/F ([2]; oral, single dose 150 mg, mean (SD), read-out: Vz/F): 1210 L
- half-life ([2]; oral, single dose 150 mg, median (min, max), read-out: t1/2 (converted)): 46.7 h
- Tmax ([2]; oral, single dose 150 mg, median (min, max), read-out: tmax): 1.75 h
- Vd/F ([2]; single oral administration, Chinese participants, read-out: mean Vz/F): 826 to 1210 L
- half-life ([2]; single oral administration, across the dose range, Chinese participants, read-out: median terminal half-life (t1/2)): 28.3 to 46.7 h
- Tmax ([2]; single oral administration, across the dose range, Chinese participants, read-out: median tmax): 1.75 to 3 h
- CL/F ([2]; single dose 50 mg, mean (SD)): 21.2 (13.1) L/hr
- CL/F ([2]; single dose 100 mg, mean (SD)): 21.4 (16.5) L/hr
- CL/F ([2]; single dose 150 mg, mean (SD)): 18.1 (14.2) L/hr
